# pEC50, pIC50: −log10 of the molar value. Active and inactive are the calls of the source. No cut-off for these calls is given here.
# Key:
# [1] = molecular target: T1, Indoleamine 2,3-dioxygenase 1 (Homo sapiens, UniProt P14902); assay: Inhibition of recombinant human IDO1 assessed as reduction in conversion of L-tryptophan to kynurenine by methylene blue dye based spectrometric method
# Target sequence in this assay (P14902 whole entry): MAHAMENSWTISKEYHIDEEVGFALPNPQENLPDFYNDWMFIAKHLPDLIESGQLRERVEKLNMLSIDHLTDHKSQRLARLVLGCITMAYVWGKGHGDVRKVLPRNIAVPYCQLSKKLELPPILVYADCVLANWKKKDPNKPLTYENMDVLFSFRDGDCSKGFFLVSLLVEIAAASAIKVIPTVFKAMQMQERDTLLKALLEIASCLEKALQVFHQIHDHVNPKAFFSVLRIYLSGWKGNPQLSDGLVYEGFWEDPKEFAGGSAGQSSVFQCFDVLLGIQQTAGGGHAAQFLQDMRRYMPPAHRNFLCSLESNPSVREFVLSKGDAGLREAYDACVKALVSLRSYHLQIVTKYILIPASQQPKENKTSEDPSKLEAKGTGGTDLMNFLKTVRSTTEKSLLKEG
# [2] = molecular target: T1, Indoleamine 2,3-dioxygenase 1; assay: Inhibition of IFNgamma-stimulated IDO1 in human MDA-MB-231 cells preincubated for 4 hrs followed by tryptophan addition measured after 5 hrs by methylene blue dye based spectrophotometric method; assay type: cell-based
# Target sequence in this assay (P14902 whole entry): as above
# [3] = molecular target: Tryptophan 2,3-dioxygenase (Homo sapiens, UniProt P48775); assay: Inhibition of recombinant human TDO assessed as reduction in conversion of L-tryptophan to kynurenine by methylene blue dye based spectrometric method
# [4] = molecular target: T1, Indoleamine 2,3-dioxygenase 1; assay: Binding affinity to human ferric-IDO1 assessed as blue shift in soret peak at 50 uM by UV-Visible spectrophotometric method
# Target sequence in this assay (P14902 whole entry, looked up): as the sequence (P14902 whole entry) above
# MDA-MB-231 [5] = assay: Cytotoxicity against human MDA-MB-231 cells assessed as reduction in cell viability at 2 times IDO1 inhibitory IC50 after 48 hrs by MTT assay; assay type: functional, cell-based
# [6] = molecular target: T1, Indoleamine 2,3-dioxygenase 1; assay: Binding affinity to human ferrous-IDO1 assessed as blue shift in soret peak at 50 uM by UV-Visible spectrophotometric method
# Target sequence in this assay (P14902 whole entry, looked up): as the sequence (P14902 whole entry) above
# J774.A1 = assay: Cytotoxicity against mouse J774A.1 cells assessed as reduction in cell viability at 2 times IDO1 inhibitory IC50 after 48 hrs by MTT assay; assay type: cell-based; conditions: j774.a1, 48 h
# Homo sapiens = species: Homo sapiens; assay: Selectivity ratio of IC50 for human TDO to IC50 for human IDO1
# MDA-MB-231 [7] = assay: Cytotoxicity against human MDA-MB-231 cells assessed as induction of morphological changes at 2 times IDO1 inhibitory IC50 after 48 hrs by cytell imaging analysis; assay type: functional, cell-based
# A549 = assay: Cytotoxicity against human A549 cells assessed as reduction in cell viability at 2 times IDO1 inhibitory IC50 after 48 hrs by MTT assay; assay type: functional, cell-based
# HeLa = assay: Cytotoxicity against human HeLa cells assessed as reduction in cell viability at 2 times IDO1 inhibitory IC50 after 48 hrs by MTT assay; assay type: functional, cell-based
# [8] = molecular target: T1, Indoleamine 2,3-dioxygenase 1; assay: Competitive inhibition of recombinant human IDO1 assessed as reduction in conversion of L-tryptophan to N-formylkynurenine at 200 to 1500 nM by methylene blue dye based spectrometric method
# Target sequence in this assay (P14902 whole entry, looked up): as the sequence (P14902 whole entry) above
# [9] = molecular target: T1, Indoleamine 2,3-dioxygenase 1; assay: Uncompetitive inhibition of recombinant human IDO1 assessed as reduction in conversion of L-tryptophan to N-formylkynurenine at 200 to 1500 nM by methylene blue dye based spectrometric method
# Target sequence in this assay (P14902 whole entry, looked up): as the sequence (P14902 whole entry) above
# Sequence of Tryptophan 2,3-dioxygenase (P48775 whole entry): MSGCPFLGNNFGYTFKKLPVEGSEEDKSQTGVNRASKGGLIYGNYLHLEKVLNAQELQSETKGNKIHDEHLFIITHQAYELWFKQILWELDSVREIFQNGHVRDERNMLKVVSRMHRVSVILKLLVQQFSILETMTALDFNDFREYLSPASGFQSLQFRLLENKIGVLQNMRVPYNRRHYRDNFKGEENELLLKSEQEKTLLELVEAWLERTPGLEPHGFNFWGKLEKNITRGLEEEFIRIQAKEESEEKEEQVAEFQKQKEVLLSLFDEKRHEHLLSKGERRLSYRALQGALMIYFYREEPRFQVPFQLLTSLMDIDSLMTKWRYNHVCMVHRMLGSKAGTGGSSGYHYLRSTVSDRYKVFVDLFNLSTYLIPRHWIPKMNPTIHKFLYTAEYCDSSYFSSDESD
smiles,measurement,setting,value
O=C(N[C@@H](CC1C(=O)Nc2ccccc21)C(=O)OCc1ccccc1)OCc1ccccc1 (stereo partly specified),pIC50,[1],5.65
CC(=O)/C=C1\C(=O)Nc2ccccc21,pIC50,[1],5.77
O=C(N[C@@H](CC1C(=O)Nc2ccccc21)C(=O)O)c1ccccc1 (mixture of isomers),pIC50,[1],5.80
NC(=O)[C@@H](N)CC1C(=O)Nc2ccccc21 (stereo partly specified),pIC50,[1],5.08
O=C(N[C@@H](CC1C(=O)Nc2ccccc21)C(=O)O)OCc1ccccc1 (stereo partly specified),pEC50,[2],5.90
same,pIC50,[3],4.57
same,Activity,[4],Active
same,pIC50,[1],5.89
same,Activity,MDA-MB-231 [5],inactive
same,inhibition,[6],Active
same,Activity,J774.A1,Non-Toxic
same,Ratio IC50,Homo sapiens,21
same,Activity,MDA-MB-231 [7],inactive
same,Activity,A549,inactive
same,Activity,HeLa,inactive
same,inhibition,[8],Active
NCCC1C(=O)Nc2ccccc21 (stereo unspecified),pIC50,[1],5.40
Cc1ccc(S(=O)(=O)N/N=C2\C(=O)Nc3ccccc32)cc1,pIC50,[3],4.28
same,pIC50,[1],5.75
same,Ratio IC50,Homo sapiens,30
N[C@@H](CC1C(=O)Nc2ccccc21)C(=O)OCc1ccccc1 (stereo partly specified),pIC50,[1],4.87
N[C@@H](CC1C(=O)Nc2ccccc21)C(=O)O (stereo partly specified),pIC50,[3],4.22
same,pIC50,[1],5.47
same,Ratio IC50,Homo sapiens,18
O=C(NCCC1C(=O)Nc2ccccc21)OCc1ccccc1 (stereo unspecified),pIC50,[3],4.23
same,pIC50,[1],5.64
same,Ratio IC50,Homo sapiens,25
CCOC(=O)C(C(=O)OCC)=C1C(=O)Nc2ccccc21,pIC50,[3],4.15
same,pIC50,[1],6.03
same,Ratio IC50,Homo sapiens,76
O=C1Nc2ccccc2/C1=N/c1ccccc1Br,pIC50,[3],4.33
same,pIC50,[1],5.91
same,Ratio IC50,Homo sapiens,37
same,inhibition,[8],Active
CC(=O)CC(=O)/C=C1\C(=O)Nc2ccc(Cl)cc21,pEC50,[2],6.48
same,pIC50,[3],4.40
same,Activity,[4],Active
same,pIC50,[1],6.72
same,Activity,MDA-MB-231 [5],inactive
same,inhibition,[6],Active
same,Activity,J774.A1,Non-Toxic
same,Ratio IC50,Homo sapiens,210
same,Activity,MDA-MB-231 [7],inactive
same,Activity,A549,inactive
same,Activity,HeLa,inactive
same,inhibition,[8],Active
O=C1Nc2ccccc2/C1=N\c1ccc(Cl)cc1,pIC50,[1],5.59
O=C1Nc2ccccc2C1=NNc1ccccc1,pIC50,[1],5.71
O=C1N=c2ccccc2=C1NNc1cccc(Cl)c1,pIC50,[3],4.33
same,pIC50,[1],5.82
O=C1Nc2ccccc2/C1=N/Nc1ccccc1C(F)(F)F,pIC50,[3],4.42
same,pIC50,[1],5.80
same,Ratio IC50,Homo sapiens,24
O=C1Nc2ccccc2/C1=N/Nc1cccc([N+](=O)[O-])c1,pIC50,[1],5.43
CC(C)(C)OC(=O)N[C@@H](CC1C(=O)Nc2ccccc21)C(=O)O (stereo partly specified),pIC50,[1],5.71
O=C1Nc2ccccc2/C1=N/Nc1ccc(Cl)cc1,pEC50,[2],6.38
same,pIC50,[3],4.27
same,pIC50,[1],6.20
same,Activity,MDA-MB-231 [5],inactive
same,inhibition,[9],Active
same,Activity,J774.A1,Non-Toxic
same,Ratio IC50,Homo sapiens,85
same,Activity,MDA-MB-231 [7],inactive
same,Activity,A549,inactive
same,Activity,HeLa,inactive
Cn1cc(C[C@H](N)C(=O)O)c2ccccc21,Activity,MDA-MB-231 [5],inactive
same,Activity,MDA-MB-231 [7],inactive
CC(=O)CC(=O)CC1(O)C(=O)Nc2ccccc21 (stereo unspecified),pEC50,[2],6.31
same,pIC50,[3],4.25
same,Activity,[4],9 nm
same,pIC50,[1],6.35
same,Activity,MDA-MB-231 [5],inactive
same,inhibition,[6],Active
same,Activity,J774.A1,Non-Toxic
same,Ratio IC50,Homo sapiens,124
same,Activity,MDA-MB-231 [7],inactive
same,Activity,A549,inactive
same,Activity,HeLa,inactive
same,inhibition,[8],Active
CC(=O)CC(=O)CC1(O)C(=O)Nc2ccc(Cl)cc21 (stereo unspecified),pIC50,[1],6.05
same,inhibition,[9],Active
CC(=O)/C=C1\C(=O)Nc2ccc(Cl)cc21,pEC50,[2],6.34
same,pIC50,[3],4.26
same,pIC50,[1],6.44
same,Activity,MDA-MB-231 [5],inactive
same,Activity,J774.A1,Non-Toxic
same,Ratio IC50,Homo sapiens,152
same,Activity,MDA-MB-231 [7],inactive
same,Activity,A549,inactive
same,Activity,HeLa,inactive
same,inhibition,[8],Active
O=C1Nc2ccccc2/C1=N/Nc1cccc(Cl)c1,Ratio IC50,Homo sapiens,31
CC(=O)CC1(O)C(=O)Nc2ccc(Cl)cc21 (stereo unspecified),pIC50,[1],5.71
O=C1CCCC(=O)C1C1(O)C(=O)Nc2ccccc21 (stereo unspecified),pIC50,[1],5.33
CC(=O)N[C@@H](CC1C(=O)Nc2ccccc21)C(=O)O (mixture of isomers),pEC50,[2],6.32
same,pIC50,[3],4.08
same,Activity,[4],Active
same,pIC50,[1],6.21
same,Activity,MDA-MB-231 [5],inactive
same,inhibition,[6],Active
same,Activity,J774.A1,Non-Toxic
same,Ratio IC50,Homo sapiens,135
same,Activity,MDA-MB-231 [7],inactive
same,Activity,A549,inactive
same,Activity,HeLa,inactive
same,inhibition,[8],Active

# — ChEMBL document CHEMBL4261541, “Synthesis and evaluation of oxindoles as promising inhibitors of the immunosuppressive enzyme indoleamine 2,3-dioxygenase 1” (Medchemcomm, 2017)
